Data from PubChem BioAssay (NCI).
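Dose response: 5 concentrations. Exposure: 48 h. Format: 96-well plates. Endpoint: linear interpolation; highest concentration if not reached. GI50 is the concentration that inhibits growth by half. Definition used: TGI = concentration required for complete inhibition of growth.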

How the values were obtained:
Experiment in all cases: NCI tumour cell line growth inhibition, 48 h
UACC-62 melanoma = test system: UACC-62 melanoma
SNB-75 CNS = test system: SNB-75 CNS
CAKI-1 renal = test system: CAKI-1 renal
SK-OV-3 ovarian = test system: SK-OV-3 ovarian
HL-60(TB) leukemia = test system: HL-60(TB) leukemia
KM12 colon = test system: KM12 colon
OVCAR-5 ovarian = test system: OVCAR-5 ovarian
MOLT-4 leukemia = test system: MOLT-4 leukemia
EKVX NSCLC = test system: EKVX NSCLC
SR leukemia = test system: SR leukemia
T-47D breast = test system: T-47D breast
RPMI-8226 leukemia = test system: RPMI-8226 leukemia
IGROV1 ovarian = test system: IGROV1 ovarian
DU-145 prostate = test system: DU-145 prostate
TK-10 renal = test system: TK-10 renal
SK-MEL-5 melanoma = test system: SK-MEL-5 melanoma
SF-295 CNS = test system: SF-295 CNS
SW-620 colon = test system: SW-620 colon
SNB-19 CNS = test system: SNB-19 CNS
HOP-62 NSCLC = test system: HOP-62 NSCLC
NCI-H460 lung = test system: NCI-H460 lung
SK-MEL-2 melanoma = test system: SK-MEL-2 melanoma
SF-539 CNS = test system: SF-539 CNS
PC-3 prostate = test system: PC-3 prostate
A498 renal = test system: A498 renal
HCT-15 colon = test system: HCT-15 colon
BT-549 breast = test system: BT-549 breast
HOP-92 NSCLC = test system: HOP-92 NSCLC
HCC-2998 colon = test system: HCC-2998 colon
786-0 renal = test system: 786-0 renal
HS 578T breast = test system: HS 578T breast
NCI-H23 lung = test system: NCI-H23 lung
OVCAR-8 ovarian = test system: OVCAR-8 ovarian
UO-31 renal = test system: UO-31 renal
CCRF-CEM leukemia = test system: CCRF-CEM leukemia
SF-268 CNS = test system: SF-268 CNS
HT29 colon = test system: HT29 colon
NCI-H522 lung = test system: NCI-H522 lung
NCI/ADR-RES ovarian = test system: NCI/ADR-RES ovarian
RXF 393 renal = test system: RXF 393 renal
SN12C renal = test system: SN12C renal
SK-MEL-28 melanoma = test system: SK-MEL-28 melanoma
UACC-257 melanoma = test system: UACC-257 melanoma
OVCAR-3 ovarian = test system: OVCAR-3 ovarian
LOX IMVI melanoma = test system: LOX IMVI melanoma
MALME-3M melanoma = test system: MALME-3M melanoma
K-562 leukemia = test system: K-562 leukemia
OVCAR-4 ovarian = test system: OVCAR-4 ovarian
U251 CNS = test system: U251 CNS
HCT-116 colon = test system: HCT-116 colon
MDA-MB-231 breast = test system: MDA-MB-231 breast
M14 melanoma = test system: M14 melanoma
MDA-MB-435 = test system: MDA-MB-435
A549 NSCLC = test system: A549 NSCLC
MCF7 breast = test system: MCF7 breast
COLO 205 colon = test system: COLO 205 colon
NCI-H226 lung = test system: NCI-H226 lung
ACHN renal = test system: ACHN renal

SMILES: Cc1ccccc1NC(=O)Nc1nc2ccc([N+](=O)[O-])cc2s1
- GI50 (UACC-62 melanoma): 2.46 µM
- TGI (UACC-62 melanoma): 10.6 µM
- GI50 (SNB-75 CNS): 1.77 µM
- TGI (SNB-75 CNS): 4.78 µM
- GI50 (CAKI-1 renal): 1.68 µM
- TGI (CAKI-1 renal): 4.02 µM
- GI50 (SK-OV-3 ovarian): 2.05 µM
- TGI (SK-OV-3 ovarian): 5.43 µM
- GI50 (HL-60(TB) leukemia): 1.79 µM
- TGI (HL-60(TB) leukemia): 3.87 µM
- GI50 (KM12 colon): 2.49 µM
- TGI (KM12 colon): 8.57 µM
- GI50 (OVCAR-5 ovarian): 2.98 µM
- TGI (OVCAR-5 ovarian): 11.3 µM
- GI50 (MOLT-4 leukemia): 1.76 µM
- TGI (MOLT-4 leukemia): 4.02 µM
- GI50 (EKVX NSCLC): 2.16 µM
- TGI (EKVX NSCLC): 6.01 µM
- GI50 (SR leukemia): 1.73 µM
- TGI (SR leukemia): 4.11 µM
- GI50 (T-47D breast): 2.22 µM
- TGI (T-47D breast): 6.28 µM
- GI50 (RPMI-8226 leukemia): 1.43 µM
- TGI (RPMI-8226 leukemia): 3.76 µM
- GI50 (IGROV1 ovarian): 3.38 µM
- TGI (IGROV1 ovarian): 13.4 µM
- GI50 (DU-145 prostate): 3.23 µM
- TGI (DU-145 prostate): 11.2 µM
- GI50 (TK-10 renal): 2.9 µM
- TGI (TK-10 renal): 7.11 µM
- GI50 (SK-MEL-5 melanoma): 1.59 µM
- TGI (SK-MEL-5 melanoma): 3.19 µM
- GI50 (SF-295 CNS): 1.72 µM
- TGI (SF-295 CNS): 3.61 µM
- GI50 (SW-620 colon): 2.54 µM
- TGI (SW-620 colon): 7.86 µM
- GI50 (SNB-19 CNS): 2.72 µM
- TGI (SNB-19 CNS): 7.77 µM
- GI50 (HOP-62 NSCLC): 2.49 µM
- TGI (HOP-62 NSCLC): 7.01 µM
- GI50 (NCI-H460 lung): 2.31 µM
- TGI (NCI-H460 lung): 6.24 µM
- GI50 (SK-MEL-2 melanoma): 1.98 µM
- TGI (SK-MEL-2 melanoma): 4.49 µM
- GI50 (SF-539 CNS): 2.03 µM
- TGI (SF-539 CNS): 4.43 µM
- GI50 (PC-3 prostate): 1.78 µM
- TGI (PC-3 prostate): 4.23 µM
- GI50 (A498 renal): 1.89 µM
- TGI (A498 renal): 4.41 µM
- GI50 (HCT-15 colon): 2.12 µM
- TGI (HCT-15 colon): 5.48 µM
- GI50 (BT-549 breast): 2.18 µM
- TGI (BT-549 breast): 4.53 µM
- GI50 (HOP-92 NSCLC): 1.59 µM
- TGI (HOP-92 NSCLC): 4.19 µM
- GI50 (HCC-2998 colon): 2.29 µM
- TGI (HCC-2998 colon): 5.38 µM
- GI50 (786-0 renal): 2.7 µM
- TGI (786-0 renal): 8.41 µM
- GI50 (HS 578T breast): 2.4 µM
- TGI (HS 578T breast): 6.64 µM
- GI50 (NCI-H23 lung): 1.79 µM
- TGI (NCI-H23 lung): 4.7 µM
- GI50 (OVCAR-8 ovarian): 2.81 µM
- TGI (OVCAR-8 ovarian): 9.9 µM
- GI50 (UO-31 renal): 2.02 µM
- TGI (UO-31 renal): 6.33 µM
- GI50 (CCRF-CEM leukemia): 1.76 µM
- TGI (CCRF-CEM leukemia): 5.28 µM
- GI50 (SF-268 CNS): 3.06 µM
- TGI (SF-268 CNS): 9.95 µM
- GI50 (HT29 colon): 2.03 µM
- TGI (HT29 colon): 4.96 µM
- GI50 (NCI-H522 lung): 1.47 µM
- TGI (NCI-H522 lung): 4.24 µM
- GI50 (NCI/ADR-RES ovarian): 2.12 µM
- TGI (NCI/ADR-RES ovarian): 5.03 µM
- GI50 (RXF 393 renal): 1.89 µM
- TGI (RXF 393 renal): 4.29 µM
- GI50 (SN12C renal): 2.38 µM
- TGI (SN12C renal): 7.12 µM
- GI50 (SK-MEL-28 melanoma): 2.26 µM
- TGI (SK-MEL-28 melanoma): 6.29 µM
- GI50 (UACC-257 melanoma): 1.89 µM
- TGI (UACC-257 melanoma): 5.12 µM
- GI50 (OVCAR-3 ovarian): 1.84 µM
- TGI (OVCAR-3 ovarian): 4.33 µM
- GI50 (LOX IMVI melanoma): 1.83 µM
- TGI (LOX IMVI melanoma): 3.53 µM
- GI50 (MALME-3M melanoma): 2.1 µM
- TGI (MALME-3M melanoma): 4.99 µM
- GI50 (K-562 leukemia): 1.53 µM
- TGI (K-562 leukemia): 4.76 µM
- GI50 (OVCAR-4 ovarian): 2.65 µM
- TGI (OVCAR-4 ovarian): 9.13 µM
- GI50 (U251 CNS): 1.77 µM
- TGI (U251 CNS): 3.67 µM
- GI50 (HCT-116 colon): 2.24 µM
- TGI (HCT-116 colon): 5.21 µM
- GI50 (MDA-MB-231 breast): 2.74 µM
- TGI (MDA-MB-231 breast): 8.94 µM
- GI50 (M14 melanoma): 2.42 µM
- TGI (M14 melanoma): 5.85 µM
- GI50 (MDA-MB-435): 2.1 µM
- TGI (MDA-MB-435): 5.71 µM
- GI50 (A549 NSCLC): 2.17 µM
- TGI (A549 NSCLC): 5.8 µM
- GI50 (MCF7 breast): 2.36 µM
- TGI (MCF7 breast): 6.69 µM
- GI50 (COLO 205 colon): 1.61 µM
- TGI (COLO 205 colon): 3.16 µM
- GI50 (NCI-H226 lung): 2.29 µM
- TGI (NCI-H226 lung): 6.21 µM
- GI50 (ACHN renal): 1.88 µM
- TGI (ACHN renal): 4.53 µM
